Experimental data published in patent publication US7507739B2, “6-[(substituted)phenyl]triazolopyrimidines as anticancer agents” (Wyeth, priority 2003, dated 2009).

Tested on: COLO 205 cells
Test: MTS cytotoxicity test with COLO 205 cells
Type: cell-based, human
Conditions: Homo sapiens, COLO 205, 72 h, 3 days
Protocol: The assay, which is sold in kit form by Promega (Madison, Wis.; CellTiter 96 AQueous Non-Radioactive Cell Proliferation Assay), is based on the conversion by viable cells, but not by dead cells, of the tetrazolium salt, MTS (3-(4,5-dimethylthiazol-2-yl)-5-(3-carboxymethoxyphenyl)-2-(4-sulphophenyl)-2H-tetrazolium, inner salt), into a water-soluble colored formazan which is detected by spectrophotometry. Compounds are tested at nine concentrations, in order to determine IC50 values. For the test procedure, cells are harvested by trypsinization (or, in the case of non-adherent cells, by simple resuspension), washed, counted and distributed to wells of 96-well flat-bottom microtiter plates at 1000 cells per well in 200 μL of medium. In addition, one row of wells on a separate plate received cells as above (“time 0” plate). All plates are incubated at 37° in humidified 5% CO2 in air for about 24 hr.
On day 2, compounds for test are diluted and added to wells. Compounds are dissolved in DMSO at 10 mg/mL. For each compound, nine serial 2-fold dilutions are prepared in DMSO. Ten μL of each dilution in DMSO is transferred to 100 μL of medium, mixed well, and then 5 μL of this dilution is transferred in quadruplicate to wells containing cells. The final high concentration of each compound is typically 5 μM. Plates are returned to the incubator for three days. At the time of drug addition to the experimental plates, the MTS assay is run on the “time 0” plate. This produced the “time 0 MTS value” which is related to the number of viable cells per well at the time of drug addition.
After three days of culture with test compounds (day 5 overall), the MTS assay is done on all wells of the experimental plates. The absorbance values of the quadruplicate sample wells are averaged and divided by the average of the “time 0” values. The average of control wells without drug, divided by the average “time 0” value, gave the maximal relative increase in MTS color yield due to cell growth during the final three days of culture. The average of control wells with high drug concentration, divided by the “time 0” value, gave the minimal relative color yield for cells that are completely killed. The nine values for each compound are plotted against concentration, and the concentration that produced a relative color yield half way between the maximum and minimum is taken as the IC50 value.
COLO 205 is a human colon carcinoma cell line that is used for comparative testing of the examples of this invention and several reference compounds. This line is sensitive to paclitaxel and vincristine.

Work on `C[C@H](Nc1c(-c2c(F)cc(OCCO)cc2F)c(Cl)nc2ncnn12)C(F)(F)F` [Example 19, 2-[4-(5-Chloro-7-{[(1S)-2,2,2-trifluoro-1-methylethyl]amino}[1,2,4]triazolo[1,5-a]pyrimidin-6-yl)-3,5-difluorophenoxy]ethanol] yielded an IC50 of 422 nM.
Compound `C[C@H](Nc1c(-c2c(F)cc(OCCCCO)cc2F)c(Cl)nc2ncnn12)C(F)(F)F` [Example 21, 4-[4-(5-Chloro-7-{[(1S)-2,2,2-trifluoro-1-methylethyl]amino}[1,2,4]triazolo[1,5-a]pyrimidin-6-yl)-3,5-difluorophenoxy]butan-1-ol] has an IC50 of 151 nM.
`C[C@H](Nc1c(-c2c(F)ccc(OCCN(C)C)c2F)c(Cl)nc2ncnn12)C(F)(F)F` [Example 27, 5-Chloro-6-{3-[2-(dimethylamino)ethoxy]-2,6-difluorophenyl}-N-[(1S)-2,2,2-trifluoro-1-methylethyl][1,2,4]triazolo[1,5-a]pyrimidin-7-amine] was tested, and the IC50 was 1570 nM.
`C[C@H](Nc1c(-c2c(F)ccc(OCCCN(C)C)c2F)c(Cl)nc2ncnn12)C(F)(F)F` [Example 28, 5-Chloro-6-{3-[3-(dimethylamino)propoxy]-2,6-difluorophenyl}-N-[(1S)-2,2,2-trifluoro-1-methylethyl][1,2,4]triazolo[1,5-a]pyrimidin-7-amine] showed an IC50 of 785 nM.
